{"source": "patent US20170240913A1", "about": "“Methods and Materials for Producing Coreless Fruit” (The New Zealand Institute for Plant and Food Research …, priority 2014, published 2017)", "origin": "cited, not measured here", "system": "frost-damaged Bramley's Seedling", "conditions": "frost-damaged Bramley's Seedling (triploid, partially self-fertile)"}
{"molecule": "c1ccc(CNc2ncnc3c2ncn3C2CCCCO2)cc1", "note": "(centres unmarked) [SD8339]", "values": [{"measurement": "parthenocarpy", "value": "no additional benefits"}]}
{"molecule": "C=C1C[C@]23C[C@@]1(O)CC[C@H]2[C@@]12C=C[C@H](O)[C@@](C)(C(=O)O1)[C@H]2[C@@H]3C(=O)O", "note": "[GA3]", "values": [{"measurement": "parthenocarpy", "value": "not effective"}]}
